Results reported in patent US8822513B2, “Compounds for treatment of cancer” (GTX, Inc., priority 2010, dated 2014).
Like-named read-outs stand apart in the source and are kept apart here.

Legend:
PC-3/TxR xenografts = type: in vivo; conditions: for Tumor size Start: PC-3/TxR xenograft
PC-3 cells = conditions: 96 h
Text: (§1) Cells were stained with SRB solution.
Cells were stained with sulphorhodamine B (SRB) solution.

[1] = test system: three melanoma cell lines and four human prostate cancer cell lines; assay: SRB cytotoxicity, melanoma and prostate cancer cell lines (ranges and averages over the panel); type: cell-based; conditions: for antiproliferative activity (in words): Tables 1-3
[2] = Metabolic stability in dog liver microsomes; type: in vitro ADME; conditions: Table 20
[3] = Metabolic stability in mouse liver microsomes; type: in vitro ADME; conditions: Table 20
[4] = Metabolic stability in monkey liver microsomes; type: in vitro ADME; conditions: Table 20
[5] = Metabolic stability in human liver microsomes; conditions: for Half life in Human liver microsome: Table 20
[6] = Metabolic stability in rat liver microsomes; type: in vitro ADME; conditions: Table 20
HUVEC monolayers = assay: Endothelial monolayer permeability assay (FITC-dextran, transwell); conditions: 1, 2, 4 h
A375 melanoma xenografts = assay: In vivo efficacy, A375 melanoma xenograft in nude mice (SMART compounds); set-up: species or system mouse; conditions: Melanoma (A375) xenograft, 20 mg/kg i.p.
B16-F1 melanoma cells = assay: B16-F1 melanoma colony formation assay in soft agar; type: cell-based, mouse; conditions: 14 days; tested 20, 100, 500 nM
Experimental: B16-F1 melanoma cells were plated at a colony-forming density (2000 cells per well on six-well plates) on top of 0.8% base agar. Cells were grown in 0.4% agar together with DMEM medium supplemented with fetal bovine serum and an antibiotic-antimycotic solution at 37° C. in an atmosphere of 95% air and 5% CO2. […] Compounds were added to the media from 1 mM DMSO stock solutions, and a corresponding dilution of DMSO was used as control. Cells were grown for 14 days. Plates were photographed, and the number of colonies was measured by Artek 880 Automated Colony Counter (Artek Systems Corporation, Farmingdale, N.Y.).

[7] = test system: microtubules in WM-164 melanoma cells; assay: Microtubule imaging (immunofluorescence), WM-164; type: cell-based, human; conditions: 18 h
LNCaP cells = assay: SRB cytotoxicity assay, LNCaP; type: cell-based, human; conditions: read-out: IC50 ± SEM LNCaP
Text: as §1

PPC-1 cells = conditions: read-out: IC50 ± SEM PPC-1; Table 12; 96 h
Text: as §1

DU 145 cells = assay: SRB cytotoxicity assay, DU 145; type: cell-based, human; conditions: Table 12; 96 h; read-out: IC50 ± SEM Du 145
Text: as §1

[8] = test system: tubulin (colchicine, vinblastine, paclitaxel binding sites); assay: MS competitive binding assay
Text: Each reaction was run in triplicate.

A375 melanoma cells = assay: SRB cytotoxicity assay, A375; type: cell-based, human; conditions: Table 6; read-out: IC50 ± SEM A375
[9] = average of all seven cell lines, read-out: average IC50
[10] = read-out: IC50 ± SEM PC-3, Table 12

SMILES: CC(=O)O[C@@]12CO[C@@H]1C[C@H](O)[C@@]1(C)C(=O)[C@H](O)C3=C(C)[C@@H](OC(=O)[C@H](O)[C@@H](NC(=O)OC(C)(C)C)c4ccccc4)C[C@@](O)([C@@H](OC(=O)c4ccccc4)[C@H]21)C3(C)C [Docetaxel, reference compound]
- Tumor size Start (PC-3/TxR xenografts; IV 10 mpk, day 1 and 9, end point day 19): 143 ± 20 mm^3

SMILES: COc1ccc(C(=O)c2c[nH]c(-c3ccccc3)n2)cc1OC [12ae, (3,4-dimethoxyphenyl)(2-phenyl-1H-imidazol-4-yl)methanone]
- IC50 (PC-3 cells; read-out: IC50 PC-3, Table 11): > 10 µM

SMILES: COc1cc(C(=O)c2coc(-c3ccccc3)n2)cc(OC)c1OC [36a, (2-Phenyl-oxazol-4-yl)-(3,4,5-trimethoxy-phenyl)-methanone]
- antiproliferative activity (in words) [1]: hundreds of nanomolar range

SMILES: COc1cc(C(=O)[C@H]2COC(c3ccccc3)=N2)cc(OC)c1OC [35a, (2R)-(2-Phenyl-4,5-dihydro-oxazol-4-yl)-(3,4,5trimethoxy-phenyl)-methasone]
- antiproliferative activity (in words) [1]: hundreds of nanomolar range

SMILES: COc1cc(C(=O)c2c[nH]c(-c3ccc(Br)cc3)n2)cc(OC)c1OC [12la, (2-(4-bromophenyl)-1H-imidazol-4-yl)(3,4,5-trimethoxyphenyl)methanone]
- IC50 ([1]; Homo sapiens, text on Tables 1, 2, 13, read-out: IC50 (range over cell lines)): 1 to 50 µM

SMILES: O=C(c1cccc(F)c1)c1c[nH]c(-c2ccccc2)n1 [12ag, (3-fluorophenyl)(2-phenyl-1H-imidazol-4-yl)methanone]
- IC50 (PC-3 cells; read-out: IC50 PC-3, Table 11): > 10 µM

SMILES: CNCc1ccc(-c2nc(C(=O)c3cc(OC)c(OC)c(OC)c3)cs2)cc1.Cl [2s, (2-(4-((Methylamino)methyl)phenyl)thiazol-4-yl)(3,4,5-trimethoxyphenyl)methanone hydrochloride]
- antiproliferative activity (in words) [1]: abrogated activity

SMILES: COc1cc(C(=O)c2cccc(-c3ccccc3)c2)cc(OC)c1OC [1a, Biphenyl-3-yl(3,4,5-trimethoxyphenyl)methanone]
- antiproliferative activity (in words) [1]: hundreds of nanomolar range

SMILES: COc1cc(-c2nccc3ccc(-c4ccc5[nH]ccc5c4)cc23)cc(OC)c1OC [6a]
- Half life in Dog liver microsome [2]: 13 min
- Half life in Mouse liver microsome [3]: 3.43 min
- Half life in Monkey liver microsome [4]: 16 min
- Half life in Human liver microsome [5]: 32 min
- Half life in Rat liver microsome [6]: 12 min

SMILES: O=C(c1ccc(F)cc1)c1c[nH]c(-c2ccc(OCc3ccccc3)cc2)n1 [12jb, (2-(4-(benzyloxy)phenyl)-1H-imidazol-4-yl)(4-fluorophenyl)methanone]
- increase in activity compared with 12kb [1]: 440 fold

SMILES: COc1cccc2c1C(=O)c1c(O)c3c(c(O)c1C2=O)C[C@@](O)(C(=O)CO)C[C@@H]3O[C@H]1C[C@H](N)[C@H](O)[C@H](C)O1 [Doxorubicin]
- permeability of endothelial cell monolayer (HUVEC monolayers): did not induce any change

SMILES: O=C(c1ccc(F)cc1)c1c[nH]c(-c2ccccc2C(F)(F)F)n1 [12ib, (4-fluorophenyl)(2-(2-(trifluoromethyl)phenyl)-1H-imidazol-4-yl)methanone]
- IC50 [1, 9]: > 10 µM

SMILES: O=S(=O)(c1ccccc1)n1ccnc1-c1ccccc1 [10a, 2-phenyl-1-(phenylsulfonyl)-1H-imidazole]
- IC50 (PC-3 cells; read-out: IC50 PC-3, Table 11): > 10 µM

SMILES: COc1cc(C(=O)c2csc(-c3ccc(CN(C)C)cc3)n2)cc(OC)c1OC.Cl [2u, (2-(4-((Dimethylamino)methyl)phenyl)thiazol-4-yl)(3,4,5-trimethoxyphenyl)methanone hydrochloride]
- antiproliferative activity (in words) [1]: abrogated activity

SMILES: COc1cc(C(=O)c2csc(-c3ccccc3)n2)cc(OC)c1OC [SMART-H]
- T-C (A375 melanoma xenografts): 10 days
- Total log cell kill (A375 melanoma xenografts; doubling time 4.6 d): 0.7

SMILES: COc1cc(C(O)c2csc(-c3ccccc3)n2)cc(OC)c1OC (stereo not drawn) [2b, (2-Phenylthiazol-4-yl)(3,4,5-trimethoxyphenyl)methanol]
- antiproliferative activity (in words) [1]: inactive

SMILES: O=[N+]([O-])c1ccc(-c2nccn2S(=O)(=O)c2ccccc2)cc1 [10x, 2-(4-nitrophenyl)-1-(phenylsulfonyl)-1H-imidazole]
- IC50 (PC-3 cells; read-out: IC50 PC-3, Table 11): > 10 µM

SMILES: COc1ccc(-c2nc(C(=O)c3ccc(F)cc3)c[nH]2)cc1 [12cb, (4-fluorophenyl)(2-(4-methoxyphenyl)-1H-imidazol-4-yl)methanone]
- lowest tested concentration with effective inhibition of colony formation (B16-F1 melanoma cells): 20 nM
- effect on microtubules [7]: microtubule fragmentation

SMILES: COc1ccc(S(=O)(=O)Nc2cccnc2Nc2ccc(O)cc2)cc1 [ABT-751, reference compound]
- effect on microtubules [7]: microtubule fragmentation

SMILES: COc1cc(-c2nc(C(=O)c3ccc(F)cc3)c[nH]2)cc(OC)c1OC [12eb, (4-fluorophenyl)(2-(3,4,5-trimethoxyphenyl)-1H-imidazol-4-yl)methanone]
- IC50 (PC-3 cells; [10]): > 10 µM
- IC50 [1, 9]: > 10 µM
- IC50 (LNCaP cells; Table 12, 96 h): > 10 µM
- IC50 (PPC-1 cells): > 10 µM
- IC50 (DU 145 cells): > 10 µM

SMILES: COc1cc(C(=O)n2ccnc2-c2ccccc2)cc(OC)c1OC [12aaa, (2-phenyl-1H-imidazol-1-yl)(3,4,5-trimethoxyphenyl)methanone]
- IC50 (PC-3 cells; read-out: IC50 PC-3, Table 11): > 10 µM

SMILES: COc1cc(C(=O)c2csc(-c3cc(F)c(F)c(F)c3)n2)cc(OC)c1OC [2p]
- IC50 (LNCaP cells; Table 6): > 10 µM

SMILES: COc1cc(C(=O)c2c[nH]c(-c3ccc(C)cc3)n2)cc(OC)c1OC [12da, (2-(p-tolyl)-1H-imidazol-4-yl)(3,4,5-trimethoxyphenyl)methanone]
- lowest tested concentration with effective inhibition of colony formation (B16-F1 melanoma cells): 20 nM
- effect on microtubules [7]: microtubule fragmentation

SMILES: COc1ccc(C(=O)n2ccnc2-c2ccccc2)cc1 [12aba, (4-methoxyphenyl)(2-phenyl-1H-imidazol-1-yl)methanone]
- IC50 (PC-3 cells; read-out: IC50 PC-3, Table 11): > 10 µM

SMILES: COc1cc(C(=O)c2csc(Nc3ccc4[nH]ccc4c3)n2)cc(OC)c1OC [compound 55, (2-(1H-indol-5-yl amino)thiazol-4-yl)(3,4,5-trimethoxyphenyl)methanone]
- competition with colchicine-tubulin binding [8]: competed effectively with colchicine
- Half-life in HLM (Phase I) ([5]; Table 16B, Phase I): 30 min
- Half-life in HLM (Phase I + II) ([5]; Table 16B, Phase I + II (UDP-glucuronic acid present)): 43 min
- Tumor size Start (PC-3/TxR xenografts; PO 10 mpk, b.i.d × 5/w, end point day 26): 143 ± 44 mm^3
- Tumor size Start (PC-3/TxR xenografts; PO 30 mpk, b.i.d × 5/w, end point day 26): 134 ± 34 mm^3
- TGI (PC-3/TxR xenografts; p.o. 30 mg/kg b.i.d., five times a week, day 19 to 26): > 100%
- permeability of endothelial cell monolayer (HUVEC monolayers): increased permeability

SMILES: O=C(c1cc(O)c(O)c(O)c1)c1c[nH]c(-c2cc(O)c(O)c(O)c2)n1 [13ea, (3,4,5-trihydroxyphenyl)(2-(3,4,5-trihydroxyphenyl)-1H-imidazol-4-yl)methanone]
- IC50 (PC-3 cells; [10]): > 10 µM
- IC50 (LNCaP cells; Table 12, 96 h): > 10 µM
- IC50 (PPC-1 cells): > 10 µM
- IC50 (DU 145 cells): > 10 µM

SMILES: COc1cc(C(=O)c2csc(-c3ccc(CC(N)=O)cc3)n2)cc(OC)c1OC [2q]
- IC50 (LNCaP cells; Table 6): > 10 µM
- IC50 (A375 melanoma cells): > 20 µM

SMILES: O=C(c1ccc(F)cc1)c1c[nH]c(-c2ccc(Cl)cc2)n1 [12fb, (2-(4-chlorophenyl)-1H-imidazol-4-yl)(4-fluorophenyl)methanone]
- lowest tested concentration with effective inhibition of colony formation (B16-F1 melanoma cells): 100 nM

SMILES: O=C(c1cc(O)c(O)c(O)c1)c1c[nH]c(-c2ccc(Cl)cc2)n1 [13fa, (2-(4-chlorophenyl)-1H-imidazol-4-yl)(3,4,5-trihydroxyphenyl)methanone]
- IC50 (PPC-1 cells): > 10 µM

SMILES: COc1ccc(/C=C\c2cc(OC)c(OC)c(OC)c2)cc1O [CA4, Combretastatin A-4]
- permeability of endothelial cell monolayer (HUVEC monolayers): increased permeability

SMILES: COc1cc(C(=O)c2c[nH]c(-c3cc(OC)c(OC)c(OC)c3)n2)cc(OC)c1OC [12ea, (3,4,5-trimethoxyphenyl)(2-(3,4,5-trimethoxyphenyl)-1H-imidazol-4-yl)methanone]
- IC50 (PC-3 cells; [10]): > 10 µM
- IC50 [1, 9]: > 10 µM
- IC50 (LNCaP cells; Table 12, 96 h): > 10 µM
- IC50 (PPC-1 cells): > 10 µM
- IC50 (DU 145 cells): > 10 µM

SMILES: COc1cc(/C=C\c2csc(-c3ccccc3)n2)cc(OC)c1OC [3a, (Z)-2-Phenyl-4-(3,4,5-trimethoxystyryl)thiazole]
- antiproliferative activity (in words) [1]: lost activity

SMILES: COc1cc(/C(=N/O)c2csc(-c3ccccc3)n2)cc(OC)c1OC [2e-cis, (Z)-(2-Phenylthiazol-4-yl)(3,4,5-trimethoxyphenyl)methanone oxime]
- fold more activity than anti-isomer 2e-trans [1]: 10 fold
- Half life in Human liver microsome [5]: 35 min

SMILES: O=S(=O)(c1ccccc1)n1ccnc1-c1ccc(OCc2ccccc2)cc1 [10j, 2-(4-(benzyloxy)phenyl)-1-(phenylsulfonyl)-1H-imidazole]
- IC50 (PC-3 cells; read-out: IC50 PC-3, Table 11): > 10 µM
